The text below walks through data of article PMC2792877 (Biochemistry, 2008).

The target of the assay is pa-FPR (Pseudomonas aeruginosa, UniProt Q9HYK7). Nature of the assay: 1H-15N HSQC NMR titration, […] fit. The assay is classed as binding.
Sequence of pa-FPR (Q9HYK7 whole entry): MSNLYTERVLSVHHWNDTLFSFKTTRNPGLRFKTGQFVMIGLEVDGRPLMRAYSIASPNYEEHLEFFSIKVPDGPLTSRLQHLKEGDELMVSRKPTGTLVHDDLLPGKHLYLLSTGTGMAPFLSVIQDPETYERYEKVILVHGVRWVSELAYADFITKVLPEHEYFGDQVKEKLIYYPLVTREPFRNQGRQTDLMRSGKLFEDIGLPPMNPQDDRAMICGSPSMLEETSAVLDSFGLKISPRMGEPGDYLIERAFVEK

As to `NC(=O)c1ccc[n+]([C@@H]2O[C@H](COP(=O)(O)OP(=O)(O)OC[C@H]3O[C@@H](n4cnc5c(N)ncnc54)[C@H](OP(=O)(O)O)[C@@H]3O)[C@@H](O)[C@H]2O)c1` [NADP^+], the Kd is 24 µM.

As usually defined, the Kd is the constant that tells how readily two partners part at equilibrium.
